Test results taken from patent publication US4925834A, “3-methylene-4-androsten-17-ones, process for their production and pharmaceutical preparations containing them” (Schering Aktiengesellschaft, priority 1987, dated 1990).

Tested on: aromatase
Test: PMSG test in infantile female rats, orally (serum estradiol)
Assay type: in vivo, rat
Details: for Concentration in serum estradiol / % inhibition (against the PMSG control): 10 mg/animal, 2 × p.o., PMSG-treated infantile female rats; for Concentration in serum estradiol: mean with standard deviation, groups of 10; for % inhibition (against the PMSG control): serum estradiol; for effectiveness in oral application: 2×10 mg, PMSG test, in words
Experimental: The aromatase activity can be measured by the influence of the estrogen formation stimulated by PMSG. [J. Steroid. Biochem., 7 (1976) 787] Anit-tumor activity in humans of compounds which have a positive effect in the PMSG test is described in The Lancet, 1 Dec. 1984, ppg. 1237-1239.
In the so-called PMSG test 21-day-old female rats are pretreated subcutaneously every other day for a total of 7 times with 100 IU of PMSG each time. 1 hour before and 8 hours after the last PMSG application (d12) the animals receive the test substance by oral dose. They are killed 24 hours after the last PMSG application. The estradiol is examined radioimmunologically in the serum. The average value of the estradiol concentration in nmol/l with standard deviation is calculated for each group of 10 animals. The significance of the differences from the control group are examined by analysis of variance.
The percentage inhibition is calculated against the PMSG control.

C=C1C=C2CC[C@@H]3[C@H](CC[C@]4(C)C(=O)CC[C@@H]34)[C@@]2(C)CC1 (stereo in doubt) [B, 3-methylene-4-androsten-17-one]
Concentration in serum estradiol: 6.20 ± 0.80 nmol/L
% inhibition (against the PMSG control): 0%
effectiveness in oral application: no effectiveness

CSC[C@]12CCC(=CF)C=C1CC[C@@H]1[C@@H]2CC[C@]2(C)C(=O)CC[C@@H]12 [C, 3-fluoromethylene-19-methylthio-4-androsten-17-one]
Concentration in serum estradiol: 3.24 ± 0.81 nmol/L
% inhibition (against the PMSG control): 45%
effectiveness in oral application: markd inhibition effectiveness

C[C@]12CCC(=O)C(O)=C1CC[C@@H]1[C@@H]2CC[C@]2(C)C(=O)CC[C@@H]12 [A, 4-hydroxy-4-androstene-3,17-dione]
Concentration in serum estradiol: 6.08 ± 0.56 nmol/L
% inhibition (against the PMSG control): 0%
effectiveness in oral application: no effectiveness
